Results: BindingDB's records for doi:10.1074/jbc.M113.532804 (University of Wuerzburg, 2014)

What was measured:
[1] = biological target: T1, Enoyl-[acyl-carrier-protein] reductase [NADPH] FabI (Staphylococcus aureus (strain NCTC 8325 / PS 47), UniProt Q2FZQ3); test: Inhibition Kinetics Assay; conditions: pH 7.5
T1 sequence (Q2FZQ3 whole entry): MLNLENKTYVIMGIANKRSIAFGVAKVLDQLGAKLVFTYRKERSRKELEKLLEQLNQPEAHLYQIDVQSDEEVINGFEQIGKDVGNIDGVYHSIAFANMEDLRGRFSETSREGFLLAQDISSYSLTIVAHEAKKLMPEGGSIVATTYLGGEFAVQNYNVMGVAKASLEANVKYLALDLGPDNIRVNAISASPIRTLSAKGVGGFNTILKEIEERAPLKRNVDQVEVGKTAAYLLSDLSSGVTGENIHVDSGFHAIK
Description: (§1) Kinetics were performed on a Cary 100 spectrophotometer (Varian) at 20 °C.

[2] = biological target: T2, Enoyl-[acyl-carrier-protein] reductase [NADH] FabI (Escherichia coli (strain K12), UniProt P0AEK4); test: Inhibition Kinetics Assay; conditions: pH 7.5
T2 sequence (P0AEK4 whole entry): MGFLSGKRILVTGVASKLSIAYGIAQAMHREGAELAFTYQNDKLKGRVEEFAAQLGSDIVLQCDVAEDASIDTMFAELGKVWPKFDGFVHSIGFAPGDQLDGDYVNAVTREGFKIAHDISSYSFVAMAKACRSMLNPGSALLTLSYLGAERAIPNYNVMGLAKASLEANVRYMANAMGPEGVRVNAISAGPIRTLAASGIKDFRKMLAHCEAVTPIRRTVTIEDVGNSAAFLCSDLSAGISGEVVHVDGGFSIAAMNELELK
Description: as §1

| SMILES | Ki [1] | Ki [2] |
| --- | --- | --- |
| CCCCCCc1cc(=O)c(Oc2ccccc2C)cn1C [PT166] | 2.7 nM | 7 nM |
| Cc1ccn(Cc2ccccc2Cl)c(=O)c1 [PT170] | 229 nM |  |
| CCCCCCc1ccn(Cc2ccccc2C)c(=O)c1 [PT171] | 11.9 nM | 95.7 nM |
| CCCCCCc1ccn(Cc2cccc(N)c2C)c(=O)c1 [PT173] | 2 nM | 203 nM |
| CCCCCCc1ccc(Oc2ccccc2)c(=O)[nH]1 [PT191] | 196 nM |  |
| CCCCCc1ccn(Cc2ccccc2C#N)c(=O)c1 [PT420] | 29.6 nM |  |

The next lines start with results.

| Ki [1] | SMILES | Ki [2] |
| --- | --- | --- |
| 1.3 nM | Cc1c(N)cccc1Cn1ccc(OCCc2cccs2)cc1=O [CG400549] |  |
| 11 nM | CCCCCCc1cc(=O)c(Cc2ccccc2C#N)cn1C [PT159] |  |
| 11 nM | CCCCCCc1ccn(Cc2ccccc2Cl)c(=O)c1 [PT172] |  |
| 19 nM | CCCCCCc1ccn(Cc2ccccc2)c(=O)c1 [PT179] |  |
